Legend:
[1] = tested on: S. pseudintermedius 06-3228; assay: Bacterial survival in canine blood; type: cell-based, Staphylococcus pseudintermedius; conditions: adenosine 15 μM; 5′-(α, β-methylene) diphosphate 500 μM; ZM241385; 1, 1.5, 2 hours; versus bacteria alone
Experimental: (§1) Overnight cultures of S. pseudintermedius 06-3228 and 08-1661 were diluted 1:100 into fresh TSB and grown for 3 hours at 37° C. Staphylococci were centrifuged 9000×g, washed twice, and diluted in PBS to yield an O.D 600 of 0.5. Then 100 μl of 4×10^6 CFU per ml of bacteria were mixed with 500 μl of fresh canine blood, collected in EDTA. The samples were incubated at 37° C. with 100 rpm shaking and harvested at 60, 90 and 120 minutes. They were incubated on ice for 30 minutes in 1 ml of Red Blood Cell Lysing Buffer Hybri-Max™ (Sigma-Aldrich, Cat NO. R7757), then bacteria were pelleted at 9,000×g at 4° C. and plated on tryptic soy agar (TSA) for enumeration of viable bacteria.

[2] = tested on: S. pseudintermedius 08-1661; assay: Bacterial survival in canine blood; type: cell-based, Staphylococcus pseudintermedius; conditions: adenosine 15 μM; 5′-(α, β-methylene) diphosphate 500 μM; ZM241385; 1, 1.5, 2 hours; versus bacteria alone
Experimental: as §1

canine blood PMNs [3] = assay: Phagocytosis of pHrodo-labeled S. pseudintermedius 06-3228 in dog blood (flow cytometry); type: cell-based; conditions: 37° C., adenosine 15 μM, ADP analogue 500 μM, ZM241385 1 μM
Experimental: (§2) Bacteria for the phagocytosis assay were labeled using a pHrodo™ phagocytosis particle labeling kit (Life technologies, P35369) (10). Briefly, overnight cultures of S. pseudintermedius 06-3228 and 08-1661 were diluted 1:100 into fresh TSB and grown for 3 hours at 37° C. Bacteria were centrifuged, washed twice, and diluted to 20 mg/mL wet weight in 0.1 M sodium bicarbonate, pH 8.5, and pHrodo™ dye was dissolved in DMSO at 10 mM. The bacteria were suspended at a final dye concentration of 0.5 mM. The inhibitory effect of SpAdsA on canine neutrophils was evaluated in blood samples by exposing the EDTA-whole blood samples to pHrodo™ dye-labeled S. pseudintermedius 06-3228 and 08-1661 for 30 and 60 minutes at 37° C. The RBCs were lysed using Red Blood Cell Lysing Buffer Hybri-Max™ (Sigma-Aldrich, Cat NO. R7757) followed by centrifugation and washing. The final cell pellet, containing leukocytes, was suspended in wash buffer and analyzed using a flow cytometer equipped with a 488-nm argon ion laser (Attune acoustic focusing cytometry).

canine blood PMNs [4] = assay: Phagocytosis of pHrodo-labeled S. pseudintermedius 08-1661 in dog blood (flow cytometry); type: cell-based; conditions: 37° C., adenosine 15 μM, ADP analogue 500 μM, A2A receptor antagonist
Experimental: as §2

canine PMNs [5] = assay: Binding of biotin labelled wild type and attenuated LukS and LukF to canine PMNs; type: cell-based, dog; conditions: biotin labelled proteins, 30 minutes
Experimental: Purified recombinant S. pseudintermedius wild type and attenuated LukS and LukF at 500 μg/ml in PBS (pH 7.2) were incubated with 50 μl of 10 mM EZ-Link Sulfo-NHS-LC-Biotin reagent (equal to 20-fold molar excess of biotin) (Thermo Scientific, Cat No. 21327) for 30 min at room temperature. Excess biotin was removed using an Amicon Ultra-0.5 Centrifugal Filter Unit with a 30 kDa molecular weight cut-off (Milipore sigma, Cat No. UFC5030). The biotin-labeled proteins were stored at −20° C. until further use.
To test the binding of wild type and attenuated LukS and LukF to canine PMNs, biotin labelled recombinant proteins were incubated with PMNs from a clinical healthy dog for 30 minutes at room temperature, the cells were washed, then PMNs were incubated with 1:500 dilution of avidin-FITC conjugate (Sigma-Aldrich, A2050) at room temperature for 30 minutes in the dark. Unbound conjugate was removed by washing and the amount of binding was determined using a flow cytometer (Attune acoustic focusing cytometer) by gating on PMNs based on their side and forward scatter properties.

clinically normal dogs = assay: Antibody response of dogs injected with SpEX-M (ELISA); type: in vivo, dog; conditions: 20 μg subcutaneous, three weekly injections; sera days −7, 8, 15, 29; versus pre-injection sera
Experimental: Recombinant SpEX-M (SEQ ID NO:12) produced in E. coli was purified using affinity chromatography (as above) and endotoxin concentration was measured using a ToxinSensor™ Chromogenic LAL Endotoxin Assay Kit (Genscript, Cat. No. L00350). Recombinant SpEX-M at 20 μg each/0.5 cc in phosphate buffered saline (PBS) (pH 7.2) were injected in the lateral thorax by the subcutaneous route, into three clinically normal dogs. Injections were given once every 7 days for a total of three injections with a control dog receiving PBS (pH 7.2) only. Blood (6 cc) was collected from a jugular vein 4 times, on days −7, 8, 15 and 29 (relative to injections). […]
For measurement of recombinant protein antigenicity, SpEX and SpEX-M were coated separately onto ELISA plates (Corning, Cat No. 3590) at 2 μg/ml in PBS. The plates were washed with 0.05% PBS-T and incubated with two-fold serial diluted serum from dogs (injected with recombinant proteins) for 1 h at 37° C., then bound IgG was detected using HRP-conjugated goat anti-dog IgG-heavy and light chain (Bethyl Laboratories, Inc. Cat No. A40-123-1). ELISA assays plates were washed three times with PBS-T between all incubations, bound antibodies were detected using TMB substrate (Thermo Scientific, Cat No. N301), reactions were stopped with 0.18 M sulphuric acid and optical density read at 450 nm on a plate reader (Bio TEK, EL800). […]

canine PMNs [6] = assay: PMNs permeability assay (Sytox green); type: cell-based, dog; conditions: 100 μg, 30 min, relative to SpEX
Experimental: (§3) PMNs and PBMCs were separated as previously described. PMNs and PBMCs were incubated with recombinant proteins (SpEX and SpEX-M) at concentration of 100 μg in a volume of 500 μl in RPMI medium supplemented with 10% fetal bovine serum in a 5% CO2 incubator for 30 min. The supernatant of S. pseudintermedius 06-3228 was harvested at log phase to test the toxic effect of secreted SpEX. PMNs and PBMCs were stained with 1 Sytox green (Life Technologies, Inc. Cat No. 1776406) for 30 min, washed twice with PBS (pH 7.2) and analyzed using a flow cytometer (Attune acoustic focusing cytometer) by gating on PMNs and PBMCs based on their side and forward scatter properties.
(§4) To determine the protective effect of canine anti-SpEX-M on PMNs and PBMCs, recombinant S. pseudintermedius SpEX at concentration of 100 μg/ml in PBS (pH 7.2) was incubated for 30 minutes at 37° C. with serum from SpEX-M injected dogs. The experiment was run in duplicate and a p-value of <0.05 was considered significant.
(§5) For flow cytometry analysis the cut-off for cell death was established using leukocytes incubated without SpEX. Mean fluorescent intensity was determined from all gated cells.

canine PBMCs = assay: PBMCs permeability assay (Sytox green); type: cell-based, dog; conditions: 100 μg, 30 min, relative to SpEX
Experimental: as §3, §4, §5

[7] = tested on: chicken anti-protein A antibody; assay: ELISA antigenicity with HRP-chicken anti-protein A antibody; type: binding; conditions: coated protein
Experimental: For measurement of the antigenicity of recombinant proteins, affinity-purified SpsQ and SpsQ-M were coated on ELISA plates (Corning, USA Cat No. 3590) at […] in PBS (pH 7.2). The plates were washed with PBS-T and incubated with HRP-chicken anti-protein A antibody (Gallus Immunotech, USA Cat No. APA) for 1 h at 37° C., then washed. For this and all subsequent ELISA assays, plates were washed three times with PBS-T between all incubations, bound antibodies were detected using TMB substrate (Thermo Scientific, USA Cat No. N301), reactions were stopped with 0.18 M sulphuric acid and optical density read at 450 nm on a plate reader (Bio TEK, USA Cat No. EL800). The experiment was repeated at least three times and a p-value of <0.05 was considered significant, which was the same for all the experiments unless mentioned otherwise.

dog IgG = assay: ELISA reactivity with dog serum / dog IgG; type: binding; conditions: compared to SpsQ and SpA
Experimental: (§6) To test the reactivity of serum from a dog with chronic pyoderma, S. aureus SpA and S. pseudintermedius SpsQ and SpsQ-M were coated on ELISA plates (Corning, USA Cat No. 3590) at 2 μg/ml in PBS. They were incubated with serum at a dilution of 1:2000. Bound IgG, IgM, and IgA were detected by HRP-goat anti-dog IgG-heavy and light chain (Bethyl Laboratories, Inc., USA Cat No. A40-123-1), HRP-goat anti-dog IgM μ chain (Bethyl Laboratories, Inc., USA Cat No. A40-116-2), HRP-goat anti-dog IgA (Bethyl Laboratories, Inc., USA Cat No. A40-104P) at a dilution of 1:8000 in PBS-T. Dog whole IgG molecule (Rockland, USA Cat No. 004-0102-1000) was used for comparison to measure non-specific IgG binding.

dog IgM = assay: ELISA reactivity with dog IgM; type: binding; conditions: compared to SpsQ and SpA
Experimental: as §6

dog IgA = assay: ELISA reactivity with dog IgA; type: binding; conditions: compared to SpsQ and SpA
Experimental: as §6

canine B cells [8] = assay: B cell apoptosis (annexin, flow cytometry); type: cell-based, dog; conditions: 1.5 h
Experimental: (§7) A total of 100 μg of purified recombinant SpsQ or SpsQ-M was mixed with isolated peripheral blood mononuclear cells (PBMC) in 1 ml of RPMI medium supplemented with 10% fetal bovine serum and incubated for 1.5 h at 37° C. in a 5% CO2 incubator. To detect early phases of B cell apoptosis, phosphatidylserine was measured on the surface of cells using pacific blue-conjugated annexin (Thermo Scientific, USA Cat No. A35136). B cells were identified using phycoerythrin (PE) conjugated mouse anti-canine CD21 (clone: CA2.1D6) (BIO-RAD, USA Cat No. MCA1781PE) that recognizes canine CD21 (complement receptor type 2) on mature B lymphocytes. Stained B cells were analyzed using a flow cytometer (Attune acoustic focusing cytometer). B cells were also incubated with the same recombinant proteins as described above but for 3.5 h in order to detect B cell death. Cells were stained with Sytox green (Life Technologies, Inc., USA Cat No. 1776406) and PE-conjugated mouse anti-canine CD21. Gates were placed on cells positive for PE and these B cells were analyzed by flow cytometry.
(§8) For flow cytometry analysis the cut-off for apoptosis or cell death was established using leukocytes incubated without SpsQ. Mean fluorescent intensity was determined from all B cells.

canine B cells [9] = assay: B cell death (Sytox green, flow cytometry); type: cell-based, dog; conditions: 3.5 h incubation; ± SEM
Experimental: as §7, §8

Compound | survival of S. pseudintermedius 06-3228 in canine blood [1] | survival of S. pseudintermedius 08-1661 in canine blood [2] | phagocytosis, mean MFI (canine blood PMNs [3]; 06-3228, 30 minutes) | phagocytosis, mean MFI (canine blood PMNs [3]; 06-3228, 60 minutes) | phagocytosis, mean MFI (canine blood PMNs [4]; 08-1661, 30 minutes) | phagocytosis, mean MFI (canine blood PMNs [4]; 08-1661, 60 minutes) | binding to canine leukocytes (canine PMNs [5]) | further results
Nc1nc(NCCc2ccc(O)cc2)nc2nc(-c3ccco3)nn12 [ZM241385] | significantly decreased at all of time points | significantly decreased at all of time points | 241513 | no significant difference | 1,306,729 | 2,924,203 | – | –
LukS-M: attenuated Leukotoxin S with substitutions T57F, K128A and S239A | – | – | – | – | – | – | bound to canine leukocytes without causing any significant killing | –
SpEX-M: attenuated SpEX with substitutions D 102A, T125P, T206P and R217A | – | – | – | – | – | – | – | IgG against S. pseudintermedius SpEX-M and SpEX in sera of injected dogs (clinically normal dogs): reached the highest level on day 29; killing effect on PMNs (canine PMNs [6]): diminished killing effect; killing effect on PBMCs of dogs (canine PBMCs): diminished killing effect
LukF-M: attenuated Leukotoxin F with substitutions S59D and N65A | – | – | – | – | – | – | bound to canine leukocytes without causing any significant killing | –
Nc1ncnc2c1ncn2[C@@H]1O[C@H](CO)[C@@H](O)[C@H]1O [adenosine] | significantly promoted | significantly promoted | 89,583 | 711,453 | 375,737 | 764,921 | – | –
SpsQ-M: attenuated non-toxigenic S. pseudintermedius protein A with Q5K, Q6K, D32A, D33A in each Ig binding domain | – | – | – | – | – | – | – | reactivity with chicken anti-protein A (antigenicity) [7]: strong reactivity; binding to commercial dog IgG (dog IgG): significantly lower binding; binding to IgM (dog IgM): significantly lower binding; binding to IgA (dog IgA): significantly lower binding; apoptotic effect on B cells (canine B cells [8]; 100 μg protein, PBMC): low apoptotic effect; mean+/−SEM fluorescent intensity (MFI) difference between SpsQ and SpsQ-M (canine B cells [8]): 2052±285.2; Sytox MFI reduction compared to that of SpsQ (canine B cells [9]): 519065±128292

— patent publication US12138303B2, “Staphylococcus pseudintermedius virulence factor compositions” (UNIVERSITY OF TENNESSEE RESEARCH FOUNDATION, priority 2017, dated 2024)
